Data as given in PMC7539012, “Hyperphosphorylated tau aggregation and cytotoxicity modulators screen identified prescription drugs linked to Alzheimer's disease and cognitive functions” (Scientific Reports, 2020).
Where a name gives a salt, the structure may show the parent alone. Read-outs that look alike come from different tables or passages of the source.

System: T1, 1N4R p-tau
T1 construct: made in house; host or cells: E. coli (PIMAX system)
Experiment: p-tau aggregation modulator screen of 1280-compound library (ThS fluorescence net change over 16 h);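 for ThS net change: 30 µM compound with 6 µM p-tau over 16 h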
Assay type: biochemical
Parameters: key to PTAI>3SD: *: PTAI>3SD

[1] = 1280-compound library screen, ThS fluorescence net change over 16 h
[2] = library screen, ThS fluorescence net change over 16 h with p-tau
[3] = p-tau aggregation modulator screen of 1280-compound library, ThS fluorescence net change
[4] = p-tau aggregation modulator screen of the compound library, ThS fluorescence net change
[5] = p-tau aggregation modulator screen of 1280-compound library, […]

NS(=O)(=O)c1cc(C2(O)NC(=O)c3ccccc32)ccc1Cl (stereo not drawn) [Chlorthalidone]
ThS net change [1]: 382

Cc1cc(C2CCCCC2)n(O)c(=O)c1.NCCO [Ciclopirox ethanolamine]
PTAI>3SD (flag: p-tau aggregation inhibitor, ThS net change more than 3 SD from mean): *
ThS net change [2]: 20

COCCOC(=O)C1=C(C)NC(C)=C(C(=O)OC/C=C/c2ccccc2)C1c1cccc([N+](=O)[O-])c1 (stereo not drawn) [Cilnidipine]
ThS net change [2]: 230

O=C1CCc2cc(OCCCCc3nnnn3C3CCCCC3)ccc2N1 [Cilostazol]
ThS net change [1]: 397

CN/C(=N/CCSCc1nc[nH]c1C)NC#N [Cimetidine]
ThS net change [3]: 356

C(=C\c1ccccc1)/CN1CCN(C(c2ccccc2)c2ccccc2)CC1 [Cinnarizine]
ThS net change [3]: 356

CCn1nc(C(=O)O)c(=O)c2cc3c(cc21)OCO3 [Cinoxacin]
ThS net change [4]: 431

CC(C)(Oc1ccc(C2CC2(Cl)Cl)cc1)C(=O)O (stereo not drawn) [Ciprofibrate]
ThS net change [4]: 448

O=C(O)c1cn(C2CC2)c2cc(N3CCNCC3)c(F)cc2c1=O [Ciprofloxacin hydrochloride monohydrate]
ThS net change: 361

COc1cc(N)c(Cl)cc1C(=O)NC1CCN(CCCOc2ccc(F)cc2)CC1OC (stereo not drawn) [Cisapride]
ThS net change [1]: 397

COc1ccc(C[C@@H]2c3cc(OC)c(OC)cc3CC[N@+]2(C)CCC(=O)OCCCCCOC(=O)CC[N@@+]2(C)CCc3cc(OC)c(OC)cc3[C@H]2Cc2ccc(OC)c(OC)c2)cc1OC [Cisatracurium besylate]
ThS net change [4]: 458

CN(C)CCCC1(c2ccc(F)cc2)OCc2cc(C#N)ccc21 (stereo not drawn) [Citalopram Hydrobromide]
ThS net change [3]: 351

Nc1nc(Cl)nc2c1ncn2[C@H]1C[C@H](O)[C@@H](CO)O1 [Cladribine]
ThS net change [1]: 399

CC[C@H]1OC(=O)[C@H](C)[C@@H](O[C@H]2C[C@@](C)(OC)[C@@H](O)[C@H](C)O2)[C@H](C)[C@@H](O[C@@H]2O[C@H](C)C[C@H](N(C)C)[C@H]2O)[C@](C)(OC)C[C@@H](C)C(=O)[C@H](C)[C@@H](O)[C@]1(C)O [Clarithromycin]
ThS net change [4]: 416

O=C([O-])[C@H]1/C(=C/CO)O[C@@H]2CC(=O)N21.[K+] [Clavulanate potassium salt]
ThS net change: 431

COc1cc(N)c(Cl)cc1C(=O)NC1CCN(Cc2ccccc2)CC1 [Clebopride maleate]
ThS net change [1]: 406

CN1CCC[C@@H]1CCO[C@](C)(c1ccccc1)c1ccc(Cl)cc1 [Clemastine fumarate]
ThS net change [2]: 268

Cl.Clc1ccc(Cn2c(CN3CCCC3)nc3ccccc32)cc1 [Clemizole hydrochloride]
ThS net change [2]: 325

CC(C)(C)NCC(O)c1cc(Cl)c(N)c(Cl)c1 (stereo not drawn) [Clenbuterol hydrochloride]
ThS net change [5]: 349

C[N+]12CCC(CC1)C(OC(=O)C(O)(c1ccccc1)c1ccccc1)C2 (stereo not drawn) [Clidinium bromide]
ThS net change [1]: 389

NC1CCN(c2c(F)cc3c(=O)c(C(=O)O)cn(C4CC4)c3c2Cl)C1 (stereo not drawn) [Clinafloxacin]
ThS net change [4]: 433

CCC[C@@H]1C[C@@H](C(=O)N[C@@H]([C@H]2O[C@H](SC)[C@H](O)[C@@H](O)[C@H]2O)[C@H](C)Cl)N(C)C1 [Clindamycin hydrochloride]
ThS net change [3]: 344

Oc1c(I)cc(Cl)c2cccnc12 [Clioquinol]
ThS net change [3]: 336

CCC(=O)O[C@]1(C(=O)CCl)[C@@H](C)C[C@H]2[C@@H]3CCC4=CC(=O)C=C[C@]4(C)[C@@]3(F)[C@@H](O)C[C@@]21C [Clobetasol propionate]
ThS net change [1]: 409

CC(CN(C)C)C(C)(O)Cc1ccc(Cl)cc1.Cl (stereo not drawn) [Clobutinol hydrochloride]
ThS net change [3]: 336

C[C@@H]1C[C@H]2[C@@H]3C[C@H](F)C4=CC(=O)C=C[C@]4(C)[C@@]3(Cl)[C@@H](O)C[C@]2(C)[C@H]1C(=O)COC(=O)C(C)(C)C [Clocortolone pivalate]
ThS net change [4]: 414

O=P(O)(O)C(Cl)(Cl)P(=O)(O)O [Clodronate]
ThS net change [5]: 370

CCOC(=O)C(C)(C)Oc1ccc(Cl)cc1 [Clofibrate]
ThS net change [4]: 461

CC(C)(Oc1ccc(Cl)cc1)C(=O)O [Clofibric acid]
ThS net change [3]: 349
